# Laboratory results from patent publication US20220315632A1, “COMBINATION OF DIETARY PEPTIDES” (DIET4LIFE APS, priority 2019, published 2022).
# Ends that are not written are not given here. Peptide text beside a SMILES is read from it.
# Molecular target: murine intestinal cells (Mus musculus, UniProt O88319)
# Experiment: Ca2+ flux / calcium response assay (cell signaling activity) in murine intestinal cells
# Format: cell-based
# Conditions: FIG. 2, truncation
# Sequence of murine intestinal cells (O88319 whole entry): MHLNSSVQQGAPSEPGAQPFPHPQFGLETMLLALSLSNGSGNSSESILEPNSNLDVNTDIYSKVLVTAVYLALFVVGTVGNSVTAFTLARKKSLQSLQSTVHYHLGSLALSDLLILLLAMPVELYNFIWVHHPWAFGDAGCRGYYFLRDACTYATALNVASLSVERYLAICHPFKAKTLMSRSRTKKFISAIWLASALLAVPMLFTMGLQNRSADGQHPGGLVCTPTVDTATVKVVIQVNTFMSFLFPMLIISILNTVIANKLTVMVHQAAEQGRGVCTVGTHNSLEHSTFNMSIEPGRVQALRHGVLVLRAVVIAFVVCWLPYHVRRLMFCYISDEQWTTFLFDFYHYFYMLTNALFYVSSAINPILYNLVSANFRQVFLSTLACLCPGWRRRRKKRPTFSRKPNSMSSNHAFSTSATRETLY
row,Compound,activity compared with the full sequence ASDKPYIL in mIC
1,CC[C@H](C)[C@H](NC(=O)[C@H](Cc1ccc(O)cc1)NC(=O)[C@@H]1CCCN1)C(=O)N[C@@H](CC(C)C)C(=O)O [PYIL] (H-PYIL-OH),two orders of magnitude lower activity

# Test system: human (hIC) intestinal cells
# Experiment: Ca2+ flux / calcium response assay in human intestinal cells (hIC)
# Format: cell-based
# Conditions: FIG. 2, truncation
# Protocol: Elevation of intracellular calcium level was measured using the fluorescent calcium chelating dye Fluo-4 AM (ThermoFischer Scientific, Denmark). Briefly, cells were grown as a monolayer in 96-well tissue culture plates (Sarstedt, Germany) to near confluence in appropriate growth medium as described in the cell culture section. Prior to the start of the assay, the cells were incubated with 1.5 μM Fluo-4 AM in complete culture media mixed 1:1 with Hank's balanced salt solution (HBSS, ThermoFischer Scientific, Denmark) containing 25 mM HEPES (pH 7.4), 1% BSA (Sigma-Aldrich, Denmark), 2% ink (Soluro GMBH, Germany), 0.01% Pluronic F-127 (Sigma-Aldrich, Denmark) and 1 mM Probenecide (Sigma-Aldrich) for 60 minutes at 37° C.
# All test compounds were dissolved in water, and then diluted in 1×HBSS containing 25 mM HEPES (pH 7.4), 1% BSA and 2% ink. Without any removal of excess Fluo-4 AM, test compounds were added directly into the wells and fluorescence were measured using instrument settings for excitation at 488 nm and emission at 525 nm in a microtiter plate reader (SpectraMax M5, Molecular Devices, USA).
# Human intestinal cell lines were cultured in McCoy's modified 5A medium supplemented with 10% fetal bovine serum and 1% penicillin/streptomycin/neomycin at 37° C. and 5% CO2 in a humidified incubator.
row,Compound,activity in hIC
1,CC[C@H](C)[C@H](NC(=O)[C@H](Cc1ccc(O)cc1)NC(=O)[C@@H]1CCCN1)C(=O)N[C@@H](CC(C)C)C(=O)O [PYIL] (H-PYIL-OH),no activity

# Test system: not listed separately
# Experiment: Stability of peptides in serum (Fetal Bovine Serum), activity remaining
# Format: in vitro ADME
# Conditions: octapeptides X-SDKPYIL; fraction of peptide activity left after 10 min of incubation in serum at 37° C.
# Protocol: All peptides were incubated at 10^−5 M with Fetal Bovine Serum (FBS; final concentration of 66.7%) (Sigma Aldrich, Denmark) at 37° C. for 3 hours. The peptide degradation was terminated using 1 M phosphoric acid (final 0.4 M, pH ˜1.2) and neutralized to pH 7.2-7.4 with NaOH before testing activity in intestinal cells. As for small intestine homogenates, a zero degradation control was included for each peptide.
# DC7-2, NT, DKPYIL and NT-(8-13) (final concentration of 10^−6 M) were incubated either with FBS or with 270× diluted intestinal homogenate at 37° C. for various time points with shaking. Degradation was stopped with 1 M phosphoric acid and the samples were subsequently neutralized and immediately tested with intestinal cells as described above. Control for zero degradation was included for each peptide as above.
# The 20 hexapeptides with systematic N-terminal substitutions (X-KPYIL) (Schafer-N, Denmark) and NT (8-13) was incubated at 10^−6 M in either FBS for 10 minutes or with 270× diluted intestinal homogenate for 30 minutes at 37° C. with shaking. The degradation was stopped with 1 M phosphoric acid. Peptide solutions were neutralized with NaOH (pH 7.2-7.4), diluted and immediately tested for bioactivity using murine intestinal cells. Determination of EC50 for stimulation of cells allowed calculation of recovered peptide. Systematic substitutions of N-terminal amino acids in octapeptide […] and their importance for activity and stability. Sequence, activity and stability of DC7-2 is italicized.
row,Compound,Stability in serum (activity remaining) [fraction]
1,ASDKPYIL [compound 36036],0.0988
2,CSDKPYIL [compound 36037],0.0963
3,DSDKPYIL [compound 36038],0.0947
4,ESDKPYIL [compound 36039],0.0964
5,FSDKPYIL [compound 36040],0.0944
6,GSDKPYIL [compound 36041],0.0912
7,HSDKPYIL [compound 36042],0.0980
8,ISDKPYIL [compound 36043],0.0956
9,KSDKPYIL [compound 36044],0.0527
10,LSDKPYIL [compound 36045],0.0917
11,MSDKPYIL [compound 36046],0.0762
12,NSDKPYIL [compound 36047],0.0872
13,PSDKPYIL [compound 36048],0.0772
14,QSDKPYIL [compound 36049],0.0742
15,RSDKPYIL [compound 36050],0.0735
16,SSDKPYIL [compound 36051],0.0609
17,TSDKPYIL [compound 36052],0.0535
18,VSDKPYIL [compound 36053],0.0488
19,WSDKPYIL [compound 36054],0.0426
20,YSDKPYIL [compound 36055],0.0491

# Test system: mice
# Experiment: not given
# Conditions: mouse, in vivo, ip, 128 mg/kg
# Protocol: Liraglutide reached its maximum inhibition of gastric emptying at doses higher than 3 mg/kg retaining approximately 30% of the phenol red marker solution in the stomach. […] A combination test was designed in which DC7-2 was given at EC50 (3 mg/kg) together with different doses of liraglutide (same as used in dose-response test) (FIG. 17 B). […] This was further supported by the different maximum values observed for liraglutide and DC7-2 alone, respectively.
row,Compound,inhibition of gastric emptying [%]
1,"ASDKPYIL [Peptide ID 36036, A SDKPYIL]",~50

# Test system: Swiss-Webster females
# Experiment: Chronic feed intake, 3-week daily administration
# Format: in vivo
# Conditions: FIG. 18; liraglutide 3 μg/mouse s.c., DC7-2 1 mg/mouse i.p., sitagliptin 0.025 mg/mouse
# Excerpt: FIG. 18. […] Mice had free access to water and feed in this 3-week study (n=14-18 per group). Significance (P<0.05) is shown as * compared to the corresponding vehicle control.
# The effect of DC7-2 alone or in combination with liraglutide on feed intake and body weight was investigated in outbred Swiss-Webster females.
row,Compound,accumulative feed intake after repeated daily administration
1,N[C@@H](CC(=O)N1CCn2c(nnc2C(F)(F)F)C1)Cc1cc(F)c(F)cc1F [sitagliptin],reduces feed intake

# Test system: pepsin
# Experiment: Pepsin degradation (proteolytic digest of meat)
# Conditions: present in proteolytic digests
# Protocol: Minced meat is diluted 1-10 times with distilled water, adjusted to pH 1-3 with hydrochloric acid, and incubated with 0.01-10% pepsin (w/w) at 4-40° C. for ½-12 h with adequate mixing. Insoluble material is removed by centrifugation at 100-1000 xg for 3-30 min, and supernatant is neutralized with NaOH. Using sterile conditions, low molecular weight peptides in supernatant are recovered by tangential ultrafiltration at 4-40° C. for ½-12 h, and excess water is evaporated at 25-50° C. for up to 12 h. The concentrated dialysate is tested for bioactivity with cells and used for further purification by HPLC.
row,Compound,pepsin degradation
1,"ASDKPYIL [Peptide ID 36036, A SDKPYIL]",resistant to pepsin degradation

# Test system: mice
# Experiment: not given
# Conditions: 1 week of daily exposure in mice; cited from earlier work
row,Compound,desensitization of glucose homeostasis
1,exendin-4,a tendency but not significant difference
